PubChem BioAssay AID2060898 (Molecular Pharmacology Branch, DTP, NCI, 2025)
Each block holds one molecule with its values, some of them ahead of it.

System: 616215-338-R-J1-PDC complex spheroid viability
Assay: Anticancer human tumor 616215-338-R-J1-PDC patient-derived colon adenocarcinoma cell line growth inhibition [RAS]
Conditions: for IC50: curve of first compound; for viability, T/C: stronger effect = lower value
Procedure, shortened: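 Agents were tested in combination matrices in half-log decrements from a top concentration at or near clinical Cmax (10 microM if undetermined). Targets were multi-cell spheroids of tumour lines plus HUVEC and MSC stromal cells.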
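Further: spheroids exposed to agents for seven days before viability readout.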
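Wherever viability, T/C is given: 100% = DMSO vehicle control viability.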

IC50 (second compound 0.000949 µM): 11.5 nM | IC50 (second compound 0.003 µM): 7.36 nM | IC50 (second compound 0.00949 µM): 3.62 nM | IC50 (second compound 0.03 µM): < 3.16 nM | IC50 (second compound 0.0949 µM): < 3.16 nM | IC50 (second compound 0.3 µM): < 3.16 nM
Structure (SMILES): Nc1ccn(C2OC(CO)C(O)C2(F)F)c(=O)n1 (centres undefined) + CCn1c(-c2cc(N3CCN(C)CC3)cnc2C(C)OC)c2c3cc(ccc31)-c1csc(n1)CC(NC(=O)C1CC1C)C(=O)N1CCCC(N1)C(=O)OCC(C)(C)C2
viability, T/C (second compound 0.000949 µM, first compound 0.00316 µM): 96.2% | viability, T/C (second compound 0.000949 µM, first compound 0.01 µM): 53.7% | viability, T/C (second compound 0.000949 µM, first compound 0.0316 µM): 23.7% | viability, T/C (second compound 0.000949 µM, first compound 0.1 µM): 13.8% | viability, T/C (second compound 0.000949 µM, first compound 0.316 µM): 13.5% | viability, T/C (second compound 0.000949 µM, first compound 1 µM): 15.7% | viability, T/C (second compound 0.003 µM, first compound 0.00316 µM): 80.8% | viability, T/C (second compound 0.003 µM, first compound 0.01 µM): 38.6% | viability, T/C (second compound 0.003 µM, first compound 0.0316 µM): 20.2% | viability, T/C (second compound 0.003 µM, first compound 0.1 µM): 10.3% | viability, T/C (second compound 0.003 µM, first compound 0.316 µM): 11.4% | viability, T/C (second compound 0.003 µM, first compound 1 µM): 11% | viability, T/C (second compound 0.00949 µM, first compound 0.00316 µM): 52.9% | viability, T/C (second compound 0.00949 µM, first compound 0.01 µM): 28.8% | viability, T/C (second compound 0.00949 µM, first compound 0.0316 µM): 19.2% | viability, T/C (second compound 0.00949 µM, first compound 0.1 µM): 9.65% | viability, T/C (second compound 0.00949 µM, first compound 0.316 µM): 12.4% | viability, T/C (second compound 0.00949 µM, first compound 1 µM): 10.4% | viability, T/C (second compound 0.03 µM, first compound 0.00316 µM): 33.8% | viability, T/C (second compound 0.03 µM, first compound 0.01 µM): 25.8% | viability, T/C (second compound 0.03 µM, first compound 0.0316 µM): 18.5% | viability, T/C (second compound 0.03 µM, first compound 0.1 µM): 9.6% | viability, T/C (second compound 0.03 µM, first compound 0.316 µM): 8.72% | viability, T/C (second compound 0.03 µM, first compound 1 µM): 9.03% | viability, T/C (second compound 0.0949 µM, first compound 0.00316 µM): 31.6% | viability, T/C (second compound 0.0949 µM, first compound 0.01 µM): 22.4% | viability, T/C (second compound 0.0949 µM, first compound 0.0316 µM): 17.2% | viability, T/C (second compound 0.0949 µM, first compound 0.1 µM): 7.8% | viability, T/C (second compound 0.0949 µM, first compound 0.316 µM): 9.83% | viability, T/C (second compound 0.0949 µM, first compound 1 µM): 8.16% | viability, T/C (second compound 0.3 µM, first compound 0.00316 µM): 37.6% | viability, T/C (second compound 0.3 µM, first compound 0.01 µM): 25.7% | viability, T/C (second compound 0.3 µM, first compound 0.0316 µM): 21.4% | viability, T/C (second compound 0.3 µM, first compound 0.1 µM): 12.1% | viability, T/C (second compound 0.3 µM, first compound 0.316 µM): 9.28% | viability, T/C (second compound 0.3 µM, first compound 1 µM): 8.49%

IC50 (second compound 0.00316 µM): 8.93 nM | IC50 (second compound 0.01 µM): 8.71 nM | IC50 (second compound 0.0316 µM): 13.8 nM | IC50 (second compound 0.1 µM): 9.38 nM | IC50 (second compound 0.316 µM): 14.1 nM | IC50 (second compound 1 µM): 8.32 nM
Structure (SMILES): CCc1c2c(nc3ccc(O)cc13)-c1cc3c(c(=O)n1C2)COC(=O)[C@]3(O)CC + C=CC(=O)N1CCN(c2nc(OCC3CCCN3C)nc3c(F)c(-c4nc(N)cc(C)c4C(F)(F)F)c(Cl)cc23)C(C)C1
viability, T/C (second compound 0.00316 µM, first compound 0.000949 µM): 98% | viability, T/C (second compound 0.00316 µM, first compound 0.003 µM): 103% | viability, T/C (second compound 0.00316 µM, first compound 0.00949 µM): 47.2% | viability, T/C (second compound 0.00316 µM, first compound 0.03 µM): 27% | viability, T/C (second compound 0.00316 µM, first compound 0.0949 µM): 20.6% | viability, T/C (second compound 0.00316 µM, first compound 0.3 µM): 16.9% | viability, T/C (second compound 0.01 µM, first compound 0.000949 µM): 99.3% | viability, T/C (second compound 0.01 µM, first compound 0.003 µM): 106% | viability, T/C (second compound 0.01 µM, first compound 0.00949 µM): 45.8% | viability, T/C (second compound 0.01 µM, first compound 0.03 µM): 30.2% | viability, T/C (second compound 0.01 µM, first compound 0.0949 µM): 23.6% | viability, T/C (second compound 0.01 µM, first compound 0.3 µM): 17.6% | viability, T/C (second compound 0.0316 µM, first compound 0.000949 µM): 107% | viability, T/C (second compound 0.0316 µM, first compound 0.003 µM): 115% | viability, T/C (second compound 0.0316 µM, first compound 0.00949 µM): 59.9% | viability, T/C (second compound 0.0316 µM, first compound 0.03 µM): 32.5% | viability, T/C (second compound 0.0316 µM, first compound 0.0949 µM): 18.4% | viability, T/C (second compound 0.0316 µM, first compound 0.3 µM): 14.9% | viability, T/C (second compound 0.1 µM, first compound 0.000949 µM): 112% | viability, T/C (second compound 0.1 µM, first compound 0.003 µM): 109% | viability, T/C (second compound 0.1 µM, first compound 0.00949 µM): 48.5% | viability, T/C (second compound 0.1 µM, first compound 0.03 µM): 29.4% | viability, T/C (second compound 0.1 µM, first compound 0.0949 µM): 20.1% | viability, T/C (second compound 0.1 µM, first compound 0.3 µM): 16.5% | viability, T/C (second compound 0.316 µM, first compound 0.000949 µM): 110% | viability, T/C (second compound 0.316 µM, first compound 0.003 µM): 98.1% | viability, T/C (second compound 0.316 µM, first compound 0.00949 µM): 57.7% | viability, T/C (second compound 0.316 µM, first compound 0.03 µM): 32.4% | viability, T/C (second compound 0.316 µM, first compound 0.0949 µM): 16.3% | viability, T/C (second compound 0.316 µM, first compound 0.3 µM): 12.8% | viability, T/C (second compound 1 µM, first compound 0.000949 µM): 106% | viability, T/C (second compound 1 µM, first compound 0.003 µM): 110% | viability, T/C (second compound 1 µM, first compound 0.00949 µM): 42.5% | viability, T/C (second compound 1 µM, first compound 0.03 µM): 28.2% | viability, T/C (second compound 1 µM, first compound 0.0949 µM): 22.9% | viability, T/C (second compound 1 µM, first compound 0.3 µM): 15.4%
